The values below are quoted from earlier work in patent publication US20230203007A1, “PYRIDINYLACETAMIDE DERIVATIVES AS SODIUM CHANNEL ACTIVATORS” (priority 2021, published 2023).

The target of one data set is T1, Nav1.1 (Homo sapiens, UniProt P35498).
T1 construct: host or cells: HEK cells
The note with it: Nav1.1-expressing HEK cells.

The next data set concerns the target Nav1.5 (Homo sapiens, UniProt Q14524). Conditions: relative to Nav1.1 activation.
A further data set concerns the target Nav1.2 (Homo sapiens, UniProt Q99250). Conditions: relative to Nav1.1 activation.

Molecules are shown by their SMILES.

Chain of Nav1.5 (Q14524 whole entry): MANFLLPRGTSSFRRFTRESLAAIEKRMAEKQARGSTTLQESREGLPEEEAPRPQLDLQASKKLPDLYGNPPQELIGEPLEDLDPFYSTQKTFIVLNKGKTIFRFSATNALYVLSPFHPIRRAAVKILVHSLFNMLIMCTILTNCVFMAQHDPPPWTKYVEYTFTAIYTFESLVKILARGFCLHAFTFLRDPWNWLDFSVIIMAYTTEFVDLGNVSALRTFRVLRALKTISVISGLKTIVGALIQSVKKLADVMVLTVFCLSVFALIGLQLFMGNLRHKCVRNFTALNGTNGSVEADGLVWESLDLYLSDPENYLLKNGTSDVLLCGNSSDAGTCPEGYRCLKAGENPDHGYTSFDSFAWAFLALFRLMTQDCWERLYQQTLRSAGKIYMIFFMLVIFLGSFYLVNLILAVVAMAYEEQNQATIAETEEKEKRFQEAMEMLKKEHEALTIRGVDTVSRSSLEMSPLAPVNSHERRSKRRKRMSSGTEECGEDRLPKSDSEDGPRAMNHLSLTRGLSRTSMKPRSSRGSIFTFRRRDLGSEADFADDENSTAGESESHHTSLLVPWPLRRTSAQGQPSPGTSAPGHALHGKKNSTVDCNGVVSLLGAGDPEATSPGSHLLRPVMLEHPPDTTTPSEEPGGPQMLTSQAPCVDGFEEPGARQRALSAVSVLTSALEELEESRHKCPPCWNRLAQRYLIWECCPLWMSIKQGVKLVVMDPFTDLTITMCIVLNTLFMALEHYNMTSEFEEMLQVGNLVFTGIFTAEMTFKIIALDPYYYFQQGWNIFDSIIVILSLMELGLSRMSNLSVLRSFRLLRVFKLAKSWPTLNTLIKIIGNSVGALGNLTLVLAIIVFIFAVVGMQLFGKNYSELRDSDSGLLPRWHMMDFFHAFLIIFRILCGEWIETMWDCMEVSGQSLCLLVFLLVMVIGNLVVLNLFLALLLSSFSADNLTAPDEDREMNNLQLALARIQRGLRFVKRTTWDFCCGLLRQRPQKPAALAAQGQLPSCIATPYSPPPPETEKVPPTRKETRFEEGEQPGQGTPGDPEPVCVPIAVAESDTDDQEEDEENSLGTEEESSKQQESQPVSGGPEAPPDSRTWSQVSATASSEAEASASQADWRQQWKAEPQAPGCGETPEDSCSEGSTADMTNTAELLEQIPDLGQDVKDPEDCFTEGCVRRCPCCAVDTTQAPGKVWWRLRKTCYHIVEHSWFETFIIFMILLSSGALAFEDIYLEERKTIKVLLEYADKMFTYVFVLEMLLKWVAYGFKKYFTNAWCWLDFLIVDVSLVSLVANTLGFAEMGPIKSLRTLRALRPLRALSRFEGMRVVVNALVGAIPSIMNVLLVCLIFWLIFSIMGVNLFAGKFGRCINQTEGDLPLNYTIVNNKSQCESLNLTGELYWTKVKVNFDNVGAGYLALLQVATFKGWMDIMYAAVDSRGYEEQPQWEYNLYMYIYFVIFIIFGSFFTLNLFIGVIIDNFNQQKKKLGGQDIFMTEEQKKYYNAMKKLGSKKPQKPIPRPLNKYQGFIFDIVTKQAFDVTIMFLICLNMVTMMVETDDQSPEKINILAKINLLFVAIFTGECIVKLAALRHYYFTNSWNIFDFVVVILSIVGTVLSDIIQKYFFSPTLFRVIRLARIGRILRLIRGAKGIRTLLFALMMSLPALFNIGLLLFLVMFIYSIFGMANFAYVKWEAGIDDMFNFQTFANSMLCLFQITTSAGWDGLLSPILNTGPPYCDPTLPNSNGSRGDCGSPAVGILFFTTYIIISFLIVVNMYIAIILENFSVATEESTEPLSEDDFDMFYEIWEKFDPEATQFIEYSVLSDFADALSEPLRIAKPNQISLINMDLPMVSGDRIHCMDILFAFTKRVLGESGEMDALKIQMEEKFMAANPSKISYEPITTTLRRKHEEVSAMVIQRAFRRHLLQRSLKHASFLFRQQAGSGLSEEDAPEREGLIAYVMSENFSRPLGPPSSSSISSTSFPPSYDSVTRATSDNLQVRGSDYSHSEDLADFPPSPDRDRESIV
Chain of Nav1.2 (Q99250 whole entry): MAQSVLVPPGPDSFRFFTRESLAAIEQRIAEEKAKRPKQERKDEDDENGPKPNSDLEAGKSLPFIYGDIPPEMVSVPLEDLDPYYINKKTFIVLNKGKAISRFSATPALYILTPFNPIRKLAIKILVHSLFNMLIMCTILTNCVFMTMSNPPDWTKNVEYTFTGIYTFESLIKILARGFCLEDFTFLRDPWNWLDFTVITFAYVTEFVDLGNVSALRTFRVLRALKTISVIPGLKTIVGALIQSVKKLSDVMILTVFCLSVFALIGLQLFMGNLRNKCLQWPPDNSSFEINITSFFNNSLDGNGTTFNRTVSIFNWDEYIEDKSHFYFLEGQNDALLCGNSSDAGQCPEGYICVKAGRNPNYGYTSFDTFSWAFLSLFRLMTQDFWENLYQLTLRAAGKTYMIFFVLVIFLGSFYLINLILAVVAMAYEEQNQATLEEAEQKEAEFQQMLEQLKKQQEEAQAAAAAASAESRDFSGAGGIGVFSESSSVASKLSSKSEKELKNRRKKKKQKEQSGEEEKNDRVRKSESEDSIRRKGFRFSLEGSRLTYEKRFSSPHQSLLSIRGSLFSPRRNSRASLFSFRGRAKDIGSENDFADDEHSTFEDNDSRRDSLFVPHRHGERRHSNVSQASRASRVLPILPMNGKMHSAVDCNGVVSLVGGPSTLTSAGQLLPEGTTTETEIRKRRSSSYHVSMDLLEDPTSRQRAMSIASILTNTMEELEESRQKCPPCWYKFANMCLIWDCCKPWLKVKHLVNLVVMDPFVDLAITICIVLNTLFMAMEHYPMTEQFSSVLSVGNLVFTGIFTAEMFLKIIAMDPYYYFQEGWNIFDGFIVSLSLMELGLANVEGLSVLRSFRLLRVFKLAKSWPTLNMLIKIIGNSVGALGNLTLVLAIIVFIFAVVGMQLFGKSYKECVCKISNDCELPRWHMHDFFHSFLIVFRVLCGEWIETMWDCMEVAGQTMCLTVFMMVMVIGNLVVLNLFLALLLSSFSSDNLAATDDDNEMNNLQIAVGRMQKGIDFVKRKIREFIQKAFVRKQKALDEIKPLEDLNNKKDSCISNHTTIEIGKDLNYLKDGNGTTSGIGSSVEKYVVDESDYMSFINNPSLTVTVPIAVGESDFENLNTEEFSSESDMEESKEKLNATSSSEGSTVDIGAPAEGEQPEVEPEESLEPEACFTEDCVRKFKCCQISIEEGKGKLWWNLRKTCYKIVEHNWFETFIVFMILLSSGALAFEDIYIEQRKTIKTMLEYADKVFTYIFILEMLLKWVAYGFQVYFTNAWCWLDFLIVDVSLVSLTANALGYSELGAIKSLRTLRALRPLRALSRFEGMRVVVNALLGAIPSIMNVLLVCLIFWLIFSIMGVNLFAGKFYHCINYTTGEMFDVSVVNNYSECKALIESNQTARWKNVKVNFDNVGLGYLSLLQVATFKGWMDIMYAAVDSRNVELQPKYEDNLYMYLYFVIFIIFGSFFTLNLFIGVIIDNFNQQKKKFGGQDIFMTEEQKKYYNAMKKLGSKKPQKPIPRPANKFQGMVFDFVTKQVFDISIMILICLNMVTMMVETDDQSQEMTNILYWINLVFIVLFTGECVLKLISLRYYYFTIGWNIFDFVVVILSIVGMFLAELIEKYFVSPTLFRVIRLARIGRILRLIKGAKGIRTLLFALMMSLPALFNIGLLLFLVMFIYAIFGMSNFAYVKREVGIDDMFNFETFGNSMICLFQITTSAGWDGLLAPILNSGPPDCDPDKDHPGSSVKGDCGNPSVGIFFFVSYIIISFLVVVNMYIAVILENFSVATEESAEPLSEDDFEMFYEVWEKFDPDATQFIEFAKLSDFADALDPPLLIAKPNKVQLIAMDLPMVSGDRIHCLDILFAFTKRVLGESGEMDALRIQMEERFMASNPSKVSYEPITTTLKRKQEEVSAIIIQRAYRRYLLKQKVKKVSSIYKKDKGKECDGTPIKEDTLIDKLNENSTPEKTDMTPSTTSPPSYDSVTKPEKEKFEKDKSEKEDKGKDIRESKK

With `CCCCNS(=O)(=O)c1ccc(OC)c(-c2nnc3c4ccccc4c(C)nn23)c1` [Lu AE98134], the “concentration from which the total area under the curve for the duration of the depolarizing pulse is increased” value at Nav1.1 is ≥ 1 µM. Moreover, the “selectivity against Nav1.5” value at Nav1.5 is recorded as “low selectivity”. Moreover, the “selectivity against Nav1.2” value on Nav1.2 is on record as “moderate selectivity”.
